Measured values from the Deep4Chem optical property database.
One block for each compound: values may come before it.

Assay: solvent given as SMILES

fluorescence lifetime (in ClCCl): 2.35 ns
Compound: CC(C)(C)c1ccc(-c2c3c(c(-c4ccc(C(C)(C)C)cc4)c4cc5ccccc5cc24)Cc2c(c(-c4ccc(C(C)(C)C)cc4)c4cc5ccccc5cc4c2-c2ccc(C(C)(C)C)cc2)C3)cc1

fluorescence lifetime (in CC#N): 5.25 ns
fluorescence lifetime (in CC(C)O): 4.36 ns
fluorescence lifetime (in CCCCCCCCO): 4.17 ns
fluorescence lifetime (in CCCCCCO): 4.27 ns
fluorescence lifetime (in CCCCO): 4.3 ns
fluorescence lifetime (in CCCO): 4.3 ns
fluorescence lifetime (in CCO): 4.74 ns
fluorescence lifetime (in CN(C)C=O): 4.78 ns
fluorescence lifetime (in CO): 4.59 ns
fluorescence lifetime (in O): 4.91 ns
fluorescence lifetime (in [2H]O[2H]): 4.8 ns
Compound: O=C([O-])c1ccccc1C1=c2cc3c4c(c2Oc2c1cc1c5c2CCCN5CCC1)CCC[N+]=4CCC3

fluorescence lifetime (in CCO): 13.4 ns
Compound: CCOC(=O)CCCCCn1c2ccc(OC)cc2c(=O)c2cc3c(cc21)c(=O)c1cc(OC)ccc1n3CCCCCC(=O)OCC

fluorescence lifetime (in O): 0.84 ns
Compound: COc1cc(N(CC(=O)[O-])CC(=O)[O-])c2ncccc2c1

Compound: c1cc2cc(c1)c1ccc3ccc4ccc(cc4c3c1)c1ccc3ccc4ccc(cc4c3c1)c1cccc2c1
fluorescence lifetime (in Cc1ccccc1): 4.7 ns

fluorescence lifetime (in CCO): 2.25 ns
Compound: CC(C)(C)c1cc(C(C)(C)C)c(-c2nnc(-c3ccc(-n4c5ccccc5c5ccccc54)cc3)o2)c(C(C)(C)C)c1

fluorescence lifetime (in c1cc(-n2c3ccccc3c3ccccc32)cc(-n2c3ccccc3c3ccccc32)c1): 9.7 ns
Compound: CC(C)(C)c1ccc2c(c1)c1cc(C(C)(C)C)ccc1n2-c1ccccc1-c1nccnc1C#N

fluorescence lifetime (in ClC(Cl)Cl): 0.25 ns
fluorescence lifetime (in ClCCl): 0.35 ns
Compound: O=[N+]([O-])c1ccc(C#Cc2ccc3ccccc3c2)cc1

fluorescence lifetime (in C1CCCCC1): 0.8 ns
Compound: COc1cc(OC)c2c(c1)C(=O)c1cc(OC)cc(OC)c1-2

Compound: N#Cc1nc2c3ccc(N(c4ccccc4)c4ccccc4)cc3c3cc(N(c4ccccc4)c4ccccc4)ccc3c2nc1C#N
fluorescence lifetime (in O=P(c1ccccc1)(c1ccccc1)c1cccc(-c2cc(-n3c4ccccc4c4ccccc43)cc(-n3c4ccccc4c4ccccc43)c2)n1): 13.4 ns

fluorescence lifetime (in c1cc(-c2cccc(-n3c4ccccc4c4ccccc43)c2)cc(-n2c3ccccc3c3ccccc32)c1): 26 ns
Compound: O=C(c1ccc(C(=O)c2ccc(N3c4ccccc4Oc4ccccc43)cc2)cc1)c1ccc(N2c3ccccc3Oc3ccccc32)cc1

fluorescence lifetime (in ClC(Cl)Cl): 0.462 ns
Compound: CCCCCCN1C(=O)c2cccc3c(-c4sc(-c5ccc6c7c(cccc57)C(=O)N(CCCCCC)C6=O)c5c4OCCO5)ccc(c23)C1=O

fluorescence lifetime (in O): 13.5 ns
Compound: [NH3+]c1ccc2ccc([O-])cc2c1

fluorescence lifetime (in ClCCl): 1.8 ns
Compound: CCCCC(CC)COc1ccc2nc(-c3ccc(-c4c(C)noc4C)s3)sc2c1 (stereo unspecified)

Compound: C#CCN1C(=O)/C(=C/c2cc(OC(C)C)ccc2OC(C)C)N=C1C
fluorescence lifetime (in C1COCCO1): 1.66 ns
fluorescence lifetime (in CC#N): 2.22 ns
fluorescence lifetime (in CC(C)=O): 2.17 ns
fluorescence lifetime (in CCCCCC): 0.89 ns
fluorescence lifetime (in CCCCO): 0.82 ns
fluorescence lifetime (in CCCO): 0.85 ns
fluorescence lifetime (in CCO): 1 ns
fluorescence lifetime (in CCOC(C)=O): 1.5 ns
fluorescence lifetime (in CN(C)C=O): 2.62 ns
fluorescence lifetime (in CO): 1.1 ns
fluorescence lifetime (in CS(C)=O): 3.03 ns

Compound: Cc1ccc2cc(C)ccc2c1
fluorescence lifetime (in C1CCCCC1): 64 ns

Compound: c1ccc(-c2nc(-c3ccccc3)nc(-c3cc(-n4c5ccccc5c5ncccc54)c(-n4c5ccccc5c5ncccc54)c(-n4c5ccccc5c5ncccc54)c3)n2)cc1
fluorescence lifetime (in O=P(c1ccccc1)(c1ccccc1)c1ccc2oc3ccc(P(=O)(c4ccccc4)c4ccccc4)cc3c2c1): 14.5 ns

fluorescence lifetime (in CCO): 4.87 ns
fluorescence lifetime (in O): 4.36 ns
Compound: O=C([O-])c1ccc(C2=c3cc4c5c(c3Oc3c2cc2c6c3CCCN6CCC2)CCC[N+]=5CCC4)c(C(=O)[O-])c1

fluorescence lifetime (in ClCCl): 1.86 ns
Compound: COC(=O)c1cc(=O)n(Cc2ccccc2)c2cc(-c3ccc(N(C)C)cc3)sc12

Compound: c1cc2c3ccc[n+]4cccc(c5ccc[n+](c1)c25)c34
fluorescence lifetime (in CC#N): 7.4 ns
fluorescence lifetime (in CS(C)=O): 4.4 ns
fluorescence lifetime (in C[N+](=O)[O-]): 6.2 ns
fluorescence lifetime (in O): 6.8 ns

fluorescence lifetime (in C1COCCO1): 0.95 ns
Compound: c1ccc(-c2nc(-c3ccc(-c4ccc(-c5nc(-c6ccccc6)c(-c6ccccc6)o5)cc4)cc3)oc2-c2ccccc2)cc1

fluorescence lifetime (in ClC(Cl)Cl): 3.8 ns
Compound: CCCCN1C(=O)c2ccc3c4ccc5c6c(ccc(c7ccc(c2c37)C1=O)c64)C(=O)N(CCCC)C5=O

fluorescence lifetime (in ClC(Cl)Cl): 8.9 ns
Compound: CCN(CC)c1ccc2cc(-c3ccc(-c4c5ccccc5c(-c5ccc(-c6cc7ccc(N(CC)CC)cc7oc6=O)cc5)c5ccccc45)cc3)c(=O)oc2c1

fluorescence lifetime (in ClCCl): 1.6 ns
Compound: CC(C)(C)c1cc(-c2cc3c(cc(-c4cc(C(C)(C)C)cc(C(C)(C)C)c4)n3-c3ccc(C(=C(c4ccccc4)c4ccccc4)c4ccccc4)cc3)n2-c2ccc(C(=C(c3ccccc3)c3ccccc3)c3ccccc3)cc2)cc(C(C)(C)C)c1

Compound: Cn1nc(-c2ccccc2)c2n[nH]nc2/c1=N\c1ccccn1
fluorescence lifetime (in CC#N): 0.33 ns
fluorescence lifetime (in CCO): 0.44 ns
fluorescence lifetime (in Cc1ccccc1): 0.34 ns

fluorescence lifetime (in C1CCOC1): 1.5 ns
Compound: CCC1(CC)c2ccccc2-c2c1c1c(c3c2C(CC)(CC)c2cc(/C=C/c4cccs4)ccc2-3)C(CC)(CC)c2ccccc2-1

fluorescence lifetime (in ClCCl): 0.47 ns
Compound: C[Si]1(C)c2ccc(-c3ccc(-c4cccs4)s3)cc2C=Cc2cc(-c3ccc(-c4cccs4)s3)ccc21

fluorescence lifetime (in ClC(Cl)Cl): 11.6 ns
Compound: CCCCCCN1C(=O)c2cccc3cc(/N=C\c4c[nH]c5c4ccc4ccccc45)cc(c23)C1=O

fluorescence lifetime (in ClCCl): 2.21 ns
Compound: CCN(CC)c1ccc2c(-c3ccccc3C(=O)O)c3c([o+]c2c1)/C(=C/c1nc(C)n2ccccc12)CCC3

Compound: O=Cc1ccc2ccc3cccc4ccc1c2c34
fluorescence lifetime (in C1CCOC1): 127 ns
fluorescence lifetime (in CC#N): 8.76 ns
fluorescence lifetime (in CCCCCC): 7.43 ns
fluorescence lifetime (in CCO): 6.44 ns
fluorescence lifetime (in CN(C)C=O): 64.8 ns
fluorescence lifetime (in CO): 0.953 ns
fluorescence lifetime (in Cc1ccccc1): 15.3 ns
fluorescence lifetime (in ClCCl): 3.45 ns

fluorescence lifetime (in C1CCCCC1): 4.11 ns
fluorescence lifetime (in CCOC(C)=O): 4.28 ns
fluorescence lifetime (in CO): 4.21 ns
Compound: Cc1ccccc1C1=C2C=c3c(oc4ccc(C(C)(C)C)cc34)=[N+]2[B-](F)(F)n2c1cc1c3cc(C(C)(C)C)ccc3oc12

fluorescence lifetime (in ClCCl): 18.9 ns
Compound: CCN(CC)c1ccc2c(c1)oc(=O)c1cc3c(-c4ccccc4)nn(C)c3nc12

fluorescence lifetime (in ClC(Cl)Cl): 4.6 ns
Compound: COc1cc2c3cc(OC)c(OC)cc3c3cc4c(C)cc(=O)oc4cc3c2cc1OC

fluorescence lifetime (in ClC(Cl)Cl): 0.6 ns
Compound: C[Si](C)(C)C#CC(C#C[Si](C)(C)C)=Cc1ccc(C=C(C#C[Si](C)(C)C)C#C[Si](C)(C)C)cc1

Compound: FC(F)(F)c1ccc(-c2nnc(-c3cc(-n4c5ccccc5c5ccccc54)c(-n4c5ccccc5c5ccccc54)cc3-c3nnc(-c4ccc(C(F)(F)F)cc4)o3)o2)cc1
fluorescence lifetime (in Cc1ccccc1): 19.1 ns

Compound: CCn1c2ccccc2c2c3nsnc3c3c4ccccc4n(CC)c3c21
fluorescence lifetime (in CN(C)C=O): 1.07 ns
fluorescence lifetime (in Cc1ccccc1): 0.97 ns
fluorescence lifetime (in ClCCl): 1 ns

fluorescence lifetime (in C1CCOC1): 3.1 ns
fluorescence lifetime (in CC(C)O): 3.5 ns
fluorescence lifetime (in CO): 2.9 ns
fluorescence lifetime (in CS(C)=O): 3.7 ns
fluorescence lifetime (in ClC(Cl)Cl): 1.2 ns
fluorescence lifetime (in ClCCl): 1.4 ns
Compound: Cc1ccc(-n2c(-c3ccccc3O)nc(-c3ccccc3O)c2-c2ccccc2O)cc1

Compound: CCOC(=O)c1ccc(NC(=O)COc2cc3c4c([nH]c3c(C)c2C)C(=O)CCC4)cc1
fluorescence lifetime (in C1COCCO1): 1.23 ns
fluorescence lifetime (in CC#N): 1.04 ns
fluorescence lifetime (in CCO): 1.26 ns
fluorescence lifetime (in CS(C)=O): 2.12 ns
fluorescence lifetime (in Cc1ccccc1): 1.1 ns

fluorescence lifetime (in CCO): 3.3 ns
fluorescence lifetime (in O): 2.36 ns
Compound: CN(C)c1ccc2c(-c3cc(C(=O)[O-])ccc3C(=O)[O-])c3ccc(=[N+](C)C)cc-3oc2c1

fluorescence lifetime (in CC#N): 4.24 ns
Compound: N#C/C(=C\c1ccncc1)c1nc(-c2ccc(Cl)cc2)cs1

fluorescence lifetime (in ClCCl): 2.59 ns
Compound: CCCCOc1ccc(-c2cc3c(o2)c(-c2ccc(OCCCC)cc2)c2n3[B-](F)(F)[N+]3=Cc4c(-c5ccc(OCCCC)cc5)c5oc(-c6ccc(OCCCC)cc6)cc5n4[B-](F)(F)[N+]3=C2)cc1

fluorescence lifetime (in ClCCl): 6.91 ns
Compound: Cc1cc(C)n2c1C=C1c3ccccc3C(c3cccn3C)=[N+]1[B-]2(F)F

Compound: CCCCCCCCCCCCn1cccc1/C=C/c1ccc(/C=C/c2cccn2CCCCCCCCCCCC)cc1
fluorescence lifetime (in Cc1ccccc1): 1.06 ns

fluorescence lifetime (in O): 3.83 ns
Compound: CC1(C)C(=O)C=Cc2ccc(N3CCC3)cc21

fluorescence lifetime (in C1CCCCC1): 33 ns
Compound: Nc1ccc2cc3ccccc3cc2c1

fluorescence lifetime (in C1CCCCC1): 0.8 ns
fluorescence lifetime (in CC#N): 2.3 ns
fluorescence lifetime (in c1ccccc1): 1.4 ns
Compound: Nc1cccc2c1C(=O)c1ccccc1-2

Compound: CCCCCCC(CCCCCC)N1C(=O)c2cccc3c(-c4ccc(N(C)C)cc4)ccc(c23)C1=O
fluorescence lifetime (in CCCCCC): 3.47 ns
fluorescence lifetime (in CCCCCCCCCCCCCC): 3.61 ns
fluorescence lifetime (in CCCCCCCCCCCO): 5.51 ns
fluorescence lifetime (in CCCCO): 3.5 ns
fluorescence lifetime (in Cc1ccccc1): 5.12 ns
fluorescence lifetime (in ClC(Cl)Cl): 6.99 ns

fluorescence lifetime (in CC#N): 1.92 ns
Compound: COc1ccc(-c2csc(/C(C#N)=C/c3ccncc3)n2)cc1

Compound: c1ccc(-c2nc(-c3ccccc3)nc(-c3ccc(-n4c5ccccc5c5cc6c(cc54)C4c5ccccc5C6c5ccccc54)cc3)n2)cc1
fluorescence lifetime (in O=P(c1ccccc1)(c1ccccc1)c1ccccc1Oc1ccccc1P(=O)(c1ccccc1)c1ccccc1): 9 ns

Compound: COc1cc(N(c2ccccc2)c2ccc(C=C(C#N)C#N)c(OC)c2)ccc1C=C(C#N)C#N
fluorescence lifetime (in C1COCCO1): 0.925 ns
fluorescence lifetime (in CC#N): 0.026 ns
fluorescence lifetime (in CC(C)=O): 0.049 ns
fluorescence lifetime (in CCOC(C)=O): 0.22 ns
fluorescence lifetime (in CN(C)C=O): 0.23 ns
fluorescence lifetime (in CO): 0.11 ns
fluorescence lifetime (in Cc1ccccc1): 0.051 ns
fluorescence lifetime (in ClC(Cl)Cl): 0.23 ns
fluorescence lifetime (in ClCCl): 0.15 ns

fluorescence lifetime (in C1CCOC1): 5.3 ns
Compound: c1ccc(-c2cnc3nn4ccccc4c3n2)cc1

fluorescence lifetime (in CCOC(C)=O): 8.29 ns
Compound: CC(C)(C)OC(=O)n1ccc2c3ccc4cccc5ccc(cc21)c3c54

Compound: N#Cc1ccc(/C=C/c2c3ccccc3cc3ccccc23)cc1
fluorescence lifetime (in C1CCOC1): 0.82 ns
fluorescence lifetime (in CC1CCCCC1): 3.01 ns
fluorescence lifetime (in CC#N): 0.68 ns
fluorescence lifetime (in CO): 0.6 ns
fluorescence lifetime (in Cc1ccccc1): 2.12 ns
fluorescence lifetime (in ClC(Cl)Cl): 0.82 ns

fluorescence lifetime (in C1CCOC1): 1.6 ns
Compound: CCC1(CC)c2cc(/C=C/c3cccs3)ccc2-c2c1c1c(c3c2C(CC)(CC)c2cc(/C=C/c4cccs4)ccc2-3)C(CC)(CC)c2cc(/C=C/c3cccs3)ccc2-1

Compound: COC(=O)/C(C#N)=c1\s/c(=c2/s/c(=C(/C#N)C(=O)OC)c3cc(-c4ccc(OC)cc4)sc23)c2sc(-c3ccc(OC)cc3)cc12
fluorescence lifetime (in Cc1ccccc1): 4.36 ns

Compound: CN(C)c1ccc(-c2nc3c(c4c2-c2ccccc2CC4)-c2ccccc2CC3)cc1
fluorescence lifetime (in C1CCOC1): 0.91 ns
fluorescence lifetime (in CC#N): 1.19 ns
fluorescence lifetime (in CCOC(C)=O): 0.75 ns
fluorescence lifetime (in CS(C)=O): 2.13 ns
fluorescence lifetime (in Cc1ccccc1): 0.27 ns
fluorescence lifetime (in ClCCl): 0.8 ns

fluorescence lifetime (in C1CCCCC1): 4 ns
fluorescence lifetime (in c1ccccc1): 0.84 ns
Compound: Nc1ccc2c(c1)C(=O)c1ccccc1-2
